Measurements: patent US20060088545A1, “Use of inhibitors of the protease of the human immunodeficiency virus (hiv) to block cell migration and/or invasion, tissue infiltration and oedema for the therary of diseases associated therewith” (priority 2001, published 2006)
“Also recorded” adds a separate entry of the source.

What was measured:
[1] = tested on: primary macrovascular (umbilical vein) endothelial cells (HUVEC); assay: Boyden chamber migration assay of HUVEC in response to bFGF; type: cell-based, human; settings: 0.1, 1 or 10 μM; bFGF 50 ng/ml; 5 hours
Procedure: Both assays were performed on endothelial cells.
Both assays were performed by the Boyden chamber separated in two compartments by polycarbonate filters with 12 μm pores (Nucleoprobe, Cabin John, Md.), coated with collagen IV (Collaborative Biomedical Products) for migration, or with collagen IV and Matrigel together for invasion, as described previously (Barillari et al., 1999b). […] After 5 hours (migration) or 6 hours (Invasion) of incubation, the non-migrated cells present on the top surface of the filters were mechanically removed, while the migrated cells on the bottom surface were fixed in methanol and stained with toluidine blue (Sigma Chemical Co., St. Louis, Mo.). The cells present in 5-10 microscopic fields of the filters, chosen at random, were counted as described previously (Barillari et al., 1999b).
The concentrations of HIV-PI used were the same as those present in plasma of treated patients (Deeks et al., 1997).

[2] = tested on: lesions induced by bFGF and VEGF combined; assay: Angiogenic KS-like lesions induced by bFGF and VEGF combined in nude mice; type: in vivo; settings: bFGF 0.1 μg + VEGF 1 μg
Procedure: Since VEGF co-operates synergistically with bFGF in inducing angiogenesis and KS-lesion formation, mice (6 animals/group) were also inoculated with sub-optimal amounts of bFGF (0.1 μg) and VEGF (1 μg) combined, as previously performed to observe their synergistic effect (Samaniego et al 1998), and treated with HIV-PI as indicated above.
At sacrifice the sites of injection were examined for the presence of macroscopic angioproliferative lesions and tissue stained by H & E and analysed microscopically. Here are listed the number (No.) of mice that developed lesions with respect to the number (No.) of mice inoculated, and the percentage (%) of mice that developed lesions.

KS cells = assay: KS cell migration, Boyden chamber, bFGF chemo-attractant; type: cell-based, human; settings: 0.01 μM-1 μM, 5 days
Procedure: In contrast, both drugs inhibited KS cell capability of invading a matrigel substrate in a dose-dependent manner. In particular, both HIV-PI inhibit the invasion of KS cells by 30-40% (p<0.05) (Table 4 and FIG. 13).
Migration and invasion assays were carried out essentially as detailed in the key to FIGS. 2 and 3.

[3] = tested on: endothelial/lung carcinoma hybrid (Ea-hy 926) cells; assay: Invasion assay of Ea-hy 926 cells in response to bFGF; type: cell-based, human; settings: 1 μM
Procedure: The assays have been performed essentially as described in key to FIG. 1. No growth factors were added to EA-hy 926 cells since they produce factors which mediates cell growth in autocrine fashion (Edgell et al., 1983, Albini et al., PNAS 1995, Albini et al., Nat Med 1996). […] The assays have been performed essentially as described in legend to FIG. 3. Average and variation range of two independent experiments each performed in duplicate are shown.

[4] = tested on: lung carcinoma (A549) cells; assay: Invasion assay of A549 cells in response to bFGF; type: cell-based, human; settings: 0.1, 1 or 10 μM
Procedure: The invasion assays were performed in the Boyden chamber. Polycarbonate filters ([…]; Nucleoprobe, Cabin John, Md.) were coated first with collagen IV and then with Matrigel (Collaborative Biomedical Products) as described previously (Barillari et al., 1999b). […] Human recombinant bFGF (50 ng/ml) was placed in the lower compartment as chemo-attractant. […] Louis, Mo.). Ten random filter fields were counted by light microscopy as described previously (Barillari et al., 1999b).

[5] = tested on: myelo-monocytic leukaemia (U937) cells; assay: Tumour lesions induced by U937 cells in nude mice; type: in vivo; settings: 5×10^6 cells/site; daily treatment
Procedure: The treatment with HIV-PI or saline solution continued until sacrifice. The size of the lesions present at the injection site was evaluated daily by caliper measurement. External lesion area was then calculated as the product of the two major lesion diameters. The mean size (cm^2) of the lesions present at the injection site is shown.
To determine whether HIV-PI could inhibit the growth of malignant solid and lymphoid tumours, nude mice were inoculated with hepato-carcinoma cells (SK-Hep-1), lung carcinoma cells (A549), breast adeno-carcinoma cells (MDA-MB-468), myelo-monocytic leukaemia cells (U937), and T lymhocytic leukaemia cells (Jurkat).

IL-1β = IL-1β production by KS cells (ELISA); type: cell-based, human; settings: 0.1, 1 and 10 μM, 5 days + 24 hours
Procedure: After 24 hours of incubation, the supernatants of the cultures were tested by ELISA (R & D Systems, Minneapolis, Minn., USA) to determine the quantity of IL-6 present in the medium. The quantity of IL-6 is expressed in pg/ml of supernatant. The same tests were carried out for bFGF, VEGF, IL-1α and IL-1β by means of commercial ELISA kits.
KS cells secrete cytokines with an inflammatory, oedemigenic, angiogenic and proliferative activity with autocrine and paracrine effects (Ensoli and Stürzl, 1998). These factors mediate all the processes required for KS-like lesions formation (angiogenesis, cellular proliferation and invasion, inflammatory Infiltration, oedema) and vascular permeability and oedema induced by KS cells in nude mice. […] The quantity of bFGF, VEGF, IL-1 and IL-6 was dosed with immuno-enzymatic trials in the supernatants of the KS cells after 24 hours of culture in the absence of serum and in the continuous presence of the two HIV-PI (ELISA). […] Furthermore IL-6 plays a key role in the multicentric Cstleman's diseases and in the growth of lymphomas (Tosato et al., 1993; Peterson and Frizzera, 1993; Asou et al., 1998; Ramsay et al., 1994), another type of tumour whose incidence is reduced in patients treated with HIV-PI (International Collaboration on HIV and Cancer 2000).

Row | SMILES | migration induced by bFGF [1] | No. of mice developing lesions/No. of mice [2] | mice developing lesions (%) [2] [%] | migration of KS cells (KS cells) | invasion in response to bFGF [3] | invasive capacity in response to bFGF [4] | development of tumour lesions (lesion size) [5] | production of IL-1β by KS cells (IL-1β) | production of IL-1β by KS cells (IL-1β; listed as indinavir)
1 | CC(C)(C)NC(=O)[C@@H]1CN(Cc2cccnc2)CCN1C[C@@H](O)C[C@@H](Cc1ccccc1)C(=O)N[C@H]1c2ccccc2C[C@H]1O [Indinavir, indinavir] | block | 2/6 | 33 | neither indinavir nor saquinavir had any effect | inhibit | inhibit | inhibit | inhibited | reduced
2 | CC(C)(C)NC(=O)[C@@H]1C[C@@H]2CCCC[C@@H]2CN1C[C@@H](O)[C@H](Cc1ccccc1)NC(=O)[C@H](CC(N)=O)NC(=O)c1ccc2ccccc2n1 [Saquinavir, saquinavir] | block | 1/6 | 17 | neither indinavir nor saquinavir had any effect | inhibit | inhibit | inhibit | reduced; also recorded: inhibited | 
